Test results taken from ChEMBL document CHEMBL1201862, “PubChem BioAssay data set” (2004).
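Each compound was tested at five concentrations against cells in 96-well plates for 48 hours. The concentration for 50% growth inhibition is given as GI50.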 The source made the active and inactive calls. No stated cut-off is given here; in the data, active = GI50 up to about 1.1 µM and inactive = higher.

What was measured:
Assay in all cases: NCI tumour cell line growth inhibition, 48 h
[1] = system: A498
[2] = system: ACHN
[3] = system: CCRF-CEM
[4] = system: HCT-116
[5] = system: HL-60
[6] = system: Hs-578T
[7] = system: IGROV-1
[8] = system: K562
[9] = system: KM12
[10] = system: LOX IMVI
[11] = system: NCI-H226
[12] = system: NCI-H460
[13] = system: OVCAR-8
[14] = system: PC-3
[15] = system: SF-539
[16] = system: SK-MEL-2
[17] = system: SK-MEL-5
[18] = system: SR
[19] = system: SW-620
[20] = system: U-251

Measured: GI50

CN(C)CC(CN(C)C)c1ccccn1
inactive: [1] > 100 µM | [2] > 100 µM | [3] > 100 µM | [4] > 100 µM | [5] > 100 µM | [6] > 100 µM | [7] > 100 µM | [8] > 100 µM | [9] > 100 µM | [10] > 100 µM | [11] > 100 µM | [12] > 100 µM | [13] > 100 µM | [14] > 100 µM | [15] > 100 µM | [16] > 100 µM | [17] > 100 µM | [18] > 100 µM | [19] > 100 µM | [20] > 100 µM

O=C1Nc2ccc([N+](=O)[O-])cc2/C1=N/NC(=S)Nc1ccc([N+](=O)[O-])cc1
inactive: [1] 18.2 µM | [2] 24.8 µM | [3] 18.7 µM | [4] 20.4 µM | [5] 26.7 µM | [6] 51.9 µM | [7] 17.7 µM | [8] 34.2 µM | [9] 18.6 µM | [10] 22.2 µM | [11] 27.9 µM | [12] 19.7 µM | [13] 31.5 µM | [14] 24.2 µM | [15] 29.4 µM | [16] 18.5 µM | [17] 15.8 µM | [18] 30.2 µM | [19] 39.2 µM | [20] 23.7 µM

N#CC1=C(N)N(/N=C/c2ccccc2)C(c2ccccc2)C1(C#N)C#N (stereo not given)
inactive: [1] 15.9 µM | [2] 4.3 µM | [3] 1.9 µM | [4] 2.81 µM | [5] 2.19 µM | [6] 24.1 µM | [7] 13.7 µM | [8] 2.98 µM | [9] 22.8 µM | [10] 4.14 µM | [11] 18.6 µM | [13] 18.7 µM | [14] 16.4 µM | [15] 16.5 µM | [16] 17.2 µM | [17] 14.2 µM | [18] 2.26 µM | [19] 5.18 µM | [20] 17.7 µM

O=C1CSC(c2cccc(Oc3ccccc3)c2)N1c1ccc(Cl)cc1 (stereo not given)
inactive: [1] 17.5 µM | [2] 26.1 µM | [3] 51.4 µM | [4] 13.6 µM | [5] 24.9 µM | [6] 32.9 µM | [8] 15.7 µM | [9] 21.3 µM | [10] 18 µM | [11] 32.8 µM | [12] 17.1 µM | [13] 34.7 µM | [14] 23 µM | [15] 32.1 µM | [16] 18.5 µM | [17] 11.9 µM | [18] 14 µM | [19] 33.6 µM | [20] 31 µM

O=C1OC(c2ccccc2)=NC1c1ccccc1 (stereo not given)
inactive: [1] > 100 µM | [2] > 100 µM | [3] > 100 µM | [4] > 100 µM | [5] > 100 µM | [6] > 100 µM | [7] > 100 µM | [8] > 100 µM | [9] > 100 µM | [10] > 100 µM | [11] > 100 µM | [12] > 100 µM | [13] > 100 µM | [14] > 100 µM | [15] > 100 µM | [17] > 100 µM | [18] > 100 µM | [19] > 100 µM | [20] > 100 µM

COc1ccc2c(CC(=O)O)cc(=O)oc2c1
inactive: [1] > 100 µM | [2] > 100 µM | [3] > 100 µM | [4] > 100 µM | [5] > 100 µM | [6] > 100 µM | [7] > 100 µM | [8] > 100 µM | [9] > 100 µM | [10] > 100 µM | [11] > 100 µM | [12] > 100 µM | [13] > 100 µM | [14] > 100 µM | [15] > 100 µM | [17] > 100 µM | [18] > 100 µM | [19] > 100 µM | [20] > 100 µM

O=C1NC2c3c(I)sc(I)c3/C(=N\O)C2O1 (stereo not given)
inactive: [1] 33.6 µM | [2] 17 µM | [3] 24.3 µM | [4] 25.1 µM | [5] 20 µM | [6] 11.5 µM | [7] 19.8 µM | [8] 19.9 µM | [9] 30.1 µM | [10] 29.4 µM | [11] 31 µM | [12] 31.5 µM | [13] 18.4 µM | [14] 39.2 µM | [15] 14.2 µM | [16] 63.7 µM | [18] 29.9 µM | [19] 19 µM | [20] 23.1 µM
